# ChEMBL document CHEMBL5360649, “Potential Broad-Spectrum Antimicrobial, Wound Healing, and Disinfectant Cationic Peptide Crafted from Snake Venom” (J Med Chem, 2023)
# The source made the active and inactive calls. The rule behind the calls is not given here. Bridge positions count the residues as written; N and C are the ends. Square brackets hold non-standard residues; d marks the D form. Peptide text beside a SMILES is read from it. * marks the point of attachment. ξ: configuration not given here. Heptanoyl(6-Me) = CC(C)CCCCC(=O)*; dDab = NCC[C@@H](N)C(=O)O; Orn = NCCC[C@H](N)C(=O)O; Dab = NCC[C@H](N)C(=O)O; ξP = O=C(O)C1CCCN1
# Experiments:
# Rattus norvegicus = species: Rattus norvegicus; assay: Induction of wound healing in surgically-induced Albino Wistar rat wound model inoculated with methicillin-resistant Staphylococcus aureus assessed as reduction in scarring measured after 11 days by H&E staining based analysis; format: functional; details: time 11.0 day
# Cell membrane [1] = assay: Induction of cytoplasmic membrane depolarization in Klebsiella pneumoniae assessed as increase in fluorescence intensity at 5 uM by DiSC3-5 dye based fluorescence method; format: subcellular
# Cell membrane [2] = assay: Induction of outer membrane permeabilization in methicillin-resistant Staphylococcus aureus incubated for 5 to 20 mins by fluorescence based NPN uptake assay; format: subcellular; details: time 5-20 min
# Klebsiella pneumoniae [3] = assay: Induction of resistance development in Klebsiella pneumoniae assessed as fold increase in MIC at 0.5 times of MIC incubated with compound for 12 hrs followed by replacement with fresh medium for 12 hrs and measured after 20 repeated cycles; format: functional; details: time 240.0 hrs
# Pseudomonas aeruginosa [4] = assay: Induction of resistance development in Pseudomonas aeruginosa assessed as fold increase in MIC at 0.5 times of MIC incubated with compound for 12 hrs followed by replacement with fresh medium for 12 hrs and measured after 20 repeated cycles; format: functional, organism-based; details: time 240.0 hrs
# Pseudomonas aeruginosa [5] = assay: Antibacterial activity against patient-derived Pseudomonas aeruginosa assessed as inhibition of bacterial growth incubated for 24 hrs by CLSI protocol based microdilution method; format: functional
# Staphylococcus aureus [6] = assay: Antibacterial activity against patient-derived methicillin-resistant Staphylococcus aureus assessed as inhibition of bacterial growth incubated for 24 hrs by CLSI protocol based microdilution method; format: functional
# Escherichia coli [7] = assay: Antibacterial activity against Escherichia coli ATCC CRM-11229 assessed as inhibition of bacterial growth at 25 to 100 uM incubated overnight by spotting assay; format: functional, organism-based; details: dose 25-100 µM
# Staphylococcus aureus [8] = assay: Antibacterial activity against patient-derived methicillin-resistant Staphylococcus aureus assessed as inhibition of bacterial growth at 25 to 100 uM incubated overnight by spotting assay; format: functional, organism-based; details: dose 25-100 µM
# Klebsiella pneumoniae [9] = assay: Antibacterial activity against Klebsiella pneumoniae ATCC BAA-1705 assessed as inhibition of bacterial growth at 25 to 100 uM incubated overnight by spotting assay; format: functional, organism-based; details: dose 25-100 µM
# Klebsiella pneumoniae [10] = assay: Antibacterial activity against Klebsiella pneumoniae ATCC BAA-1705 assessed as inhibition of bacterial growth incubated for 24 hrs by CLSI protocol based microdilution method; format: functional
# Escherichia coli [11] = assay: Antibacterial activity against Escherichia coli ATCC CRM-11229 assessed as inhibition of bacterial growth incubated for 24 hrs by CLSI protocol based microdilution method; format: functional
# Pseudomonas aeruginosa [12] = assay: Antibacterial activity against patient-derived Pseudomonas aeruginosa assessed as inhibition of bacterial growth at 25 to 100 uM incubated overnight by spotting assay; format: functional, organism-based; details: dose 25-100 µM
compound,measurement,setting,value
C=CN1CCCC1=O.II,Activity,Rattus norvegicus,inactive
CC(C)C[C@@H]1NC(=O)[C@H](CCCN)NC(=O)[C@H](C(C)C)NC(=O)[C@@H]2CCCN2C(=O)[C@@H](Cc2ccccc2)NC(=O)[C@H](CC(C)C)NC(=O)[C@H](CCCN)NC(=O)[C@H](C(C)C)NC(=O)C2CCCN2C(=O)[C@@H](Cc2ccccc2)NC1=O (stereo partly drawn) (cyclo(L[dF]PV[Orn]L[dF][ξP]V[Orn])),Activity,Cell membrane [1],Active
CC(C)CCCCC(=O)N[C@@H](CCN)C(=O)N[C@H](C(=O)N[C@@H](CCN)C(=O)N[C@H]1CCNC(=O)[C@H]([C@@H](C)O)NC(=O)[C@H](CCN)NC(=O)[C@H](CCN)NC(=O)[C@H](CC(C)C)NC(=O)[C@@H](Cc2ccccc2)NC(=O)[C@@H](CCN)NC1=O)[C@@H](C)O ({Heptanoyl(6-Me)}-[Dab]T[Dab][Dab][dDab][dF]L[Dab][Dab]T; lactam 4-C),Activity,Cell membrane [2],Active
COLISTIN,fold change (FC),Klebsiella pneumoniae [3],4
same,fold change (FC),Pseudomonas aeruginosa [4],2
H-LPIIKWVKKFFWRWR-OH,MIC,Pseudomonas aeruginosa [5],10 µM
same,MIC,Staphylococcus aureus [6],15 µM
same,Activity,Escherichia coli [7],Active
same,Activity,Staphylococcus aureus [8],Active
same,Activity,Klebsiella pneumoniae [9],Active
same,MIC,Klebsiella pneumoniae [10],16 µM
same,MIC,Escherichia coli [11],8 µM
same,Activity,Pseudomonas aeruginosa [12],Active
